Experimental data from BindingDB's records for doi:10.1016/s0960-894x(00)00478-9 (Laval University, 2001).

Legend:
[1] = biological target: Glutamine--tRNA ligase (Escherichia coli) (UniProt P00962); assay: The compound was evaluated for inhibition of Glutaminyl-tRNA synthetase for Escherichia coli with respect to ATP.
[2] = The compound was evaluated for inhibition of Glutaminyl-tRNA synthetase with respect to glutamine.

Glutamine--tRNA ligase (Escherichia coli), sequence (P00962 whole entry, looked up): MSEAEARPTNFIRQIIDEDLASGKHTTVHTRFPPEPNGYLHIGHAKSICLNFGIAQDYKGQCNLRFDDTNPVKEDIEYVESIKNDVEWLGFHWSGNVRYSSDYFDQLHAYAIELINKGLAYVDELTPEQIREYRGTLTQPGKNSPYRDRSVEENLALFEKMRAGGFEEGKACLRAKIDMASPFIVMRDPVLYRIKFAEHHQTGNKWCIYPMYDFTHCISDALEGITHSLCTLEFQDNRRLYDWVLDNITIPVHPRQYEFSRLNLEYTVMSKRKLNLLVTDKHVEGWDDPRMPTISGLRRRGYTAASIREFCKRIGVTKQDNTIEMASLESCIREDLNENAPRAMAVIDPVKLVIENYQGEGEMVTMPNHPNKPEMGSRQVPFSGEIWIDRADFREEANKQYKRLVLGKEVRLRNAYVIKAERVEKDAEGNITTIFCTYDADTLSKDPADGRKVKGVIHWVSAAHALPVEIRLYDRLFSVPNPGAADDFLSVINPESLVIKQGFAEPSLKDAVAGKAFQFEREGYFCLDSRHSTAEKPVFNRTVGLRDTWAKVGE

Ki [1]: 860 nM | Ki [2]: 280 nM
Structure (SMILES): NC(=O)CCC(N)COP(=O)(O)OC[C@H]1OC(n2cnc3c(N)ncnc32)[C@H](O)[C@@H]1O (some centres not stated)
